# Measurements from patent US9133207B2, “Tetrandrine derivatives with substituted 5-carbon, preparation method and use thereof” (Hangzhou Bensheng Pharmaceutical Co., Ltd., priority 2011, dated 2015).
# Legend:
# PC-3 (prostate cancer) = experiment: Solid tumor cell growth inhibition, MTT, 72 h (Example 7); type: cell-based, human; conditions: Homo sapiens; 72 h, MTT, PC-3
# How it was run: (§1)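 4000 cells/well in DMEM high glucose with 10% FBS pre-cultured 24 h at 37 °C, 5% CO2, then exposed to tetrandrine derivatives at various concentrations for 72 h. Viability measured by MTT, expressed as % of untreated control.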
# [1] = system: Hep-2 (laryngeal carcinoma); experiment: as above; type: cell-based, human; conditions: for IC50 / IC90: Homo sapiens, 72 h, MTT, Hep 2
# How it was run: as §1
# [2] = system: CaES-17 (esophageal cancer cell); experiment: as above; type: cell-based, human; conditions: for IC50 / IC90: Homo sapiens, CaEs17, 72 h, MTT, CAES-17
# How it was run: as §1
# [3] = system: PANC-1 (pancreatic cancer); experiment: as above; type: cell-based, human; conditions: Homo sapiens; 72 h, MTT, PANC-1
# How it was run: as §1
# MG63 (osteosarcoma) = experiment: as above; type: cell-based, human; conditions: for IC50 / IC90: Homo sapiens, 72 h, MTT, MG-63
# How it was run: as §1
# [4] = system: Jurkat (acute lymphoblastic leukemia, ALL); experiment: Leukemia cell growth inhibition, MTT, 72 h (Example 5); type: cell-based, human; conditions: for IC50 / IC90: Homo sapiens, Jurkat, 72 h, MTT
# How it was run: (§2)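 6000 cells/well in RPMI 1640 with 10% FBS exposed to graded derivative concentrations for 72 h at 37 °C, 5% CO2. Viable cell concentration then measured by MTT.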
# [5] = system: NB4 (acute promyelocytic leukemia, AML); experiment: as above; type: cell-based, human; conditions: for IC50 / IC90: Homo sapiens, 72 h, MTT
# How it was run: as §2
# [6] = system: H9 (acute lymphoblastic leukemia, ALL); experiment: as above; type: cell-based, human; conditions: for IC50 / IC90: Homo sapiens, 72 h, MTT; for anti-H9 activity increase over tetrandrine: compared with tetrandrine
# How it was run: as §2
# [7] = system: Kasumi-1 (acute myeloid leukemia M2 type, AML-M2); experiment: as above; type: cell-based, human; conditions: Homo sapiens, Kasumi 1
# How it was run: as §2
# [8] = system: K562/adr (drug-resistant, chronic myeloid leukemia, CML); experiment: as above; type: cell-based, human; conditions: Homo sapiens, K562/Adr; 72 h, MTT
# How it was run: as §2
# [9] = system: RPMI8226 (multiple myeloma); experiment: Multiple myeloma cell growth inhibition, MTT, 72 h (Example 6); type: cell-based, human; conditions: Homo sapiens, RPMI-8226; 72 h, MTT, RPMI8226
# How it was run: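 RPMI8226 cells (6000 per well) in RPMI 1640 with 10% FBS were exposed to a range of tetrandrine derivative concentrations for 72 h at 37 °C under 5% CO2. Viable cell concentration was then measured by MTT.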
# [10] = system: Becap37 (human breast cancer cell); experiment: Solid tumor cell growth inhibition, MTT, 72 h (Example 7); type: cell-based; conditions: for IC50 / IC90: Homo sapiens, 72 h, MTT, Becap-37
# How it was run: as §1
# [11] = system: SK-OV-3 (ovarian cancer cell); experiment: as above; type: cell-based; conditions: Homo sapiens
# How it was run: as §1
# [12] = system: RKO (human colon adenocarcinoma cell); experiment: as above; type: cell-based; conditions: for IC50 / IC90: Homo sapiens, 72 h, MTT, RKO; for anti-RKO activity increase over tetrandrine: compared with tetrandrine
# How it was run: as §1
# [13] = system: Hela (human cervical cancer cell); experiment: as above; type: cell-based; conditions: for IC50 / IC90: Homo sapiens, 72 h, MTT, Hela
# How it was run: as §1
# [14] = system: U87 MG (malignant glioma cell); experiment: as above; type: cell-based; conditions: Homo sapiens, U-87 MG
# How it was run: as §1
# [15] = system: MGC 803 (human gastric cancer cell); experiment: as above; type: cell-based; conditions: Homo sapiens
# How it was run: as §1
# [16] = system: Huh7 (human liver cancer cell); experiment: as above; type: cell-based; conditions: Homo sapiens; 72 h, MTT, Huh-7
# How it was run: as §1
# A549 (human lung cancer) = experiment: as above; type: cell-based; conditions: Homo sapiens; 72 h, MTT, A549
# How it was run: as §1
# [17] = system: CNE (nasopharyngeal carcinoma cell); experiment: as above; type: cell-based; conditions: Homo sapiens
# How it was run: as §1
smiles,measurement,setting,value
COc1ccc2cc1Oc1ccc(cc1)C[C@H]1c3cc(c(OC)cc3CCN1C)Oc1c(OC)c(OC)c(CN3CCN(C)CC3)c3c1[C@H](C2)N(C)CC3 [BS-TE-360],IC50,PC-3 (prostate cancer),1.85 µg/mL
same,IC90,PC-3 (prostate cancer),2.5 µg/mL
same,IC50,[1],2.4 µg/mL
same,IC90,[1],9.39 µg/mL
same,IC50,[2],1.75 µg/mL
same,IC90,[2],10.5 µg/mL
same,IC50,[3],1.88 µg/mL
same,IC90,[3],9.54 µg/mL
same,IC50,MG63 (osteosarcoma),0.8 µg/mL
same,IC90,MG63 (osteosarcoma),1.9 µg/mL
same,IC50,[4],0.5 µg/mL
same,IC90,[4],4.5 µg/mL
same,anti-Jurkat activity increase over tetrandrine,[4]; compared with tetrandrine,~4 fold
same,IC50,[5],0.5 µg/mL
same,IC90,[5],1.4 µg/mL
same,IC50,[6],0.22 µg/mL
same,IC90,[6],1.71 µg/mL
same,anti-H9 activity increase over tetrandrine,[6],~12 fold
same,IC50,[7],0.41 µg/mL
same,IC90,[7],2.28 µg/mL
same,IC50,[8],0.33 µg/mL
same,IC90,[8],2.4 µg/mL
same,IC50,[9],0.05 µg/mL
same,IC90,[9],1.5 µg/mL
same,IC50,[10],1.2 µg/mL
same,IC90,[10],3.7 µg/mL
same,IC50,[11],1.62 µg/mL
same,IC90,[11],3.22 µg/mL
same,IC50,[12],0.12 µg/mL
same,IC90,[12],1.02 µg/mL
same,anti-RKO activity increase over tetrandrine,[12],22 fold
same,IC50,[13],1.2 µg/mL
same,IC90,[13],6 µg/mL
same,IC50,[14],0.33 µg/mL
same,IC90,[14],1.55 µg/mL
same,IC50,[15],0.8 µg/mL
same,IC90,[15],5.17 µg/mL
same,IC50,[16],0.93 µg/mL
same,IC90,[16],2.4 µg/mL
same,IC50,A549 (human lung cancer),1.7 µg/mL
same,IC90,A549 (human lung cancer),9.2 µg/mL
same,IC50,[17],0.64 µg/mL
same,IC90,[17],3.55 µg/mL
COc1ccc2cc1Oc1ccc(cc1)C[C@H]1c3cc(c(OC)cc3CCN1C)Oc1c(OC)c(OC)c(COCCOc3ccccc3)c3c1[C@H](C2)N(C)CC3 [BS-TE-402],IC50,PC-3 (prostate cancer),2.05 µg/mL
same,IC90,PC-3 (prostate cancer),4.71 µg/mL
same,IC50,[1],0.58 µg/mL
same,IC90,[1],3.58 µg/mL
same,anti-Hep-2 activity increase over tetrandrine,[1]; compared with tetrandrine,7 fold
same,IC50,[2],0.6 µg/mL
same,IC90,[2],4.9 µg/mL
same,anti-CaES-17 activity increase over tetrandrine,[2]; compared with tetrandrine,14 fold
same,IC50,[3],1.34 µg/mL
same,IC90,[3],4.04 µg/mL
same,IC50,MG63 (osteosarcoma),0.07 µg/mL
same,IC90,MG63 (osteosarcoma),1.11 µg/mL
same,anti-MG63 activity increase over tetrandrine,MG63 (osteosarcoma); compared with tetrandrine,27 fold
same,IC50,[4],2.34 µg/mL
same,IC90,[4],5.6 µg/mL
same,IC50,[5],0.2 µg/mL
same,IC90,[5],1.41 µg/mL
same,anti-NB4 activity increase over tetrandrine,[5]; compared with tetrandrine,~8 fold
same,IC50,[6],0.25 µg/mL
same,IC90,[6],1.25 µg/mL
same,anti-H9 activity increase over tetrandrine,[6],~12 fold
same,IC50,[7],1.29 µg/mL
same,IC90,[7],4.77 µg/mL
same,IC50,[8],0.83 µg/mL
same,IC90,[8],2.55 µg/mL
same,IC50,[9],0.25 µg/mL
same,IC90,[9],1.17 µg/mL
same,IC50,[10],0.52 µg/mL
same,IC90,[10],2.15 µg/mL
same,anti-Becap37 activity increase over tetrandrine,[10]; compared with tetrandrine,13 fold
same,IC50,[11],1.37 µg/mL
same,IC90,[11],3.89 µg/mL
same,IC50,[12],0.17 µg/mL
same,IC90,[12],0.6 µg/mL
same,anti-RKO activity increase over tetrandrine,[12],16 fold
same,IC50,[13],0.45 µg/mL
same,IC90,[13],2.29 µg/mL
same,anti-Hela activity increase over tetrandrine,[13]; compared with tetrandrine,9 fold
same,IC50,[14],0.55 µg/mL
same,IC90,[14],1.78 µg/mL
same,IC50,[15],1.5 µg/mL
same,IC90,[15],3.62 µg/mL
same,IC50,[16],1.09 µg/mL
same,IC90,[16],4.97 µg/mL
same,IC50,A549 (human lung cancer),1.35 µg/mL
same,IC90,A549 (human lung cancer),4.79 µg/mL
same,IC50,[17],1.03 µg/mL
same,IC90,[17],2.49 µg/mL
